Results on two molecules are retold here after patent US5670487A, “Composition for protecting and/or combating blemishes on and/or ageing of the skin, and uses thereof” (L'Oreal, priority 1995, dated 1997).

Assay [1] is described as follows: Anti-free-radical activity: inhibition of the production of ethylene from methionine under UVA. The assay is classed as biochemical. Conditions: UVA 365 nm, 1 J/cm^2, pH 7.4, average of 3 tests. The method, then:
The following were introduced in order into a Petri dish 32 mm in diameter:
1.4 ml of 50 mM phosphate buffer (pH=7.4), 100 μl of 200 mM methionine solution
100 μl of 4 mM ferric chloride solution,
100 μl of 4 mM EDTA (ethylenediaminetetraacetic acid) solution, 100 μl of 400 mM NADH (nicotinamideadeninedinucleotide, reduced form) solution, 100 μl of 2 mM riboflavin solution.
Total volume of the mixture: 2 ml.
The Petri dish was then placed in an aluminum crucible and covered with a quartz cell so as to be exposed to UVA rays (365 nm) at a dose of 1 J/cm^2. The mixture, composed of NADH, riboflavin, ferric chloride and EDTA, when subjected to exposure to the UVA rays, generates reduced oxygen species: O2 .cndot.^-, H2 O2, and mainly the hydroxyl radical .cndot.OH. The latter reacts with methionine to release ethylene. The amount of ethylene was measured by gas chromatography.
The smaller the amount of free radicals formed, the smaller the amount of ethylene released. The results are expressed as a percentage of inhibitory power corresponding to the percentage decrease in the production of ethylene relative to the control (containing 100 μl of phosphate buffer replacing the test product).
The following substances studied were introduced using a micropipette: […]
terephthalylidene dicamphor sulphonic acid […]

In assay [2] the test system is skin. The assay can be described thus: UVA sun protection factor (PF = protected MPD/non-protected MPD) on the back of volunteers. Format: in vivo, human (healthy adults of both sexes). The settings on record: for UVA skin protection (assessment in words): based on the UVA sun protection factors 1.6, 2.7 and 3.4; for UVA sun protection factor: 2±0.02 μl/cm^2, UVA 320-400 nm, read approximately 2 h after exposure. On the procedure:
Potentiation of the sun protection factor
The aim of the test is to show the ability of the compositions of the invention to protect the skin against UVA by virtue of a high UVA protection factor.
Ten individuals were tested. They were healthy adults of both sexes. An area of skin located on the back of each of the volunteers was subjected to solar exposure after defining the skin type. The exposure was carried out with a UVA spectrum alone (320 nm to 400 nm), supplied by a 150 W xenon lamp fitted with a WG 335 filter 3 mm in thickness and a UG 11 filter 1 mm in thickness. The UV radiation was conducted by 6 liquid, flexible light guides, making it possible to deliver doses of from 6 to 45 joules/cm^2 in a 50% geometric progression.
The application was a single dose, in the open air, of 2±0.02 μl/cm^2, i.e., approximately 0.15 ml of test product per individual, on an area of 75 cm^2, measured with a sterile 1 ml Tuberculin syringe graduated to 1/1000 and having a centered cone.
Exposure was approximately 15 min after application of the product. Macroscopic examination of the exposed areas of the skin was performed approximately 2 h after exposure, to evaluate the immediate and permanent pigmentation reactions. The minimum pigmenting dose on the area protected by the product applied (protected MPD) and that on the area in which no product had been applied (non-protected MPD) was performed simultaneously.
The protection factor PF is then calculated as follows:
PF=protected MPD/non-protected MPD
The test was carried out with 3 compositions, each having the same support, containing arbutin, the UV screening agent (terephthalylidene dicamphor sulphonic acid), and the combination of arbutin and the UV screening agent, respectively.

Turning to `CC1(C)C2CCC1(CS(=O)(=O)O)C(=O)C2=Cc1ccc(C=C2C(=O)C3(CS(=O)(=O)O)CCC2C3(C)C)cc1` [benzene-1,4-bis(3-methylidenecamphor-10-sulphonic acid)], the “% inhibition (percentage decrease in the production of ethylene relative to the control)” value in assay [1] (0.2% terephthalylidene dicamphor sulphonic acid) is 44.7 ± 1.7%. The “UVA skin protection (assessment in words)” value in assay [2] was “significant skin protection”. For the same molecule, in assay [2] (composition with 1% terephthalylidene dicamphor sulphonic acid), the “UVA sun protection factor” value is reported as 2.7.
For the molecule `OC[C@H]1O[C@@H](Oc2ccc(O)cc2)[C@H](O)[C@@H](O)[C@@H]1O` [arbutin, hydroquinone-beta-D-glucopyranoside], in assay [1] (0.2% arbutin), the “% inhibition (percentage decrease in the production of ethylene relative to the control)” value amounted to 39.0 ± 0.6%. For the same molecule, in assay [2], the “UVA skin protection (assessment in words)” value was “negligible skin protection”. For the same molecule, in assay [2] (composition with 5% arbutin), the “UVA sun protection factor” value was determined as 1.6.
